Results published in patent US10251949B2, “Stabilized HIV-1 peptide constructs comprising the gp120 C5 domain and gp41 hydrophilic domain” (Bionor Immuno AS, priority 2009, dated 2019).
Bridge positions count the residues as written; N and C are the ends. Ends that are not written are not given here. I, II: the chains in the order shown.

Assays:
[1] = test system: sera from rabbits immunized with BI400-B binding to C5/gp41 (015/201); assay: Competitive ELISA for rabbit sera after immunization with BI400-B; conditions: for inhibition of antibody binding to C5/gp41 (015/201): antigen 10-1000 μM preincubated with rabbit serum 4° C. overnight, FIG. 3
Experimental: 50-100 μl of a mixture of BI400-015 and -201 (pre-incubated in Coating buffer—0.05M Na2CO3 pH9.6; denoted CB—in cold at 16 μg/ml for each peptide 1-3 days prior to coating) or just CB (background control) was used for coating wells in microtiter plates at 4° C. overnight. Plates were then washed 3× with washing buffer (PBS+1% v/v Triton-X100; denoted WB), followed by 2 h blocking at room temperature (RT) with 200 μl/well of blocking buffer (PBS+1% w/v BSA). Plates were then washed 3× with WB, followed by 1 h incubation at 37° C. with 60-100 μl/well of added rabbit serum samples (diluted 1:10-1:250 final concentration) preincubated together (4° C. overnight) with serial dilutions (ranging from 10-1000 μM final concentration) of 400-SEQ.B, BI400-015, BI400-201, BI400-204d, recombinant gp41 (Shin-Won Scientific, SWO 102 gp41), BI301-23 (irrelevant protein; control), no peptide (i.e. PBS; control), LTNP-sera pools (diluted 1:10 final concentration), or Blood donor sera-pools (diluted 1:10 final concentration; control). Plates were then washed 6× with WB, followed by 1 h incubation at RT with 70 μl/well of Alkaline Phosphatase-conjugated Goat-anti-Rabbit-Ig (6 μg/ml; Dako D0487). Plates were then washed 6× with WB, followed by 10-60 min incubation at RT with 100 μl/well of 0.3% w/v of Phenoftalein monophosphate (Sigma P-5758). Plates were finally quenched by adding 100 μl/well of Quench solution (0.1M TRIS+0.1M EDTA+0.5M NaOH+0.01% w/v NaN3; pH14), followed by ELISA reader (ASYS UVM 340) at 550 nm.

[2] = test system: individual human sera; assay: ELISA plate seroreactivity of individual human sera (LTNP, HIV chronically infected, blood donors); format: binding; conditions: FIG. 2, OD
Experimental: Seroreactivities of individual LTNP patient sera to SEQ ID NO: 47 (16 μg) alone and in combination with SEQ ID NO: 6 (16 μg) were determined using an ELISA plate as a solid support. Sheep anti-C5 antibodies were used as a positive control. Optical density (OD) at […] was used as a read out following the enzymatic reaction from protein G coupled to alkaline phosphatase.

[3] = test system: C5/gp41 (015/201); assay: Rabbit immunization with BI400-B vaccine, serum ELISA; format: in vivo; conditions: rabbits immunized intradermally weeks 0, 2 & 6, 500 μg in Freund's adjuvant; in the presence of PBS; FIG. 3
Experimental: New Zealand White female rabbits (n=3) were immunized intradermally at weeks 0, 2 & 6 with 1 ml of BI400-B vaccine consisting of 500 μg BI400-B in 50% V/V Freund's adjuvant (i.e. Complete Freund's adjuvant used for priming, followed by boostings with Incomplete Freund's adjuvant). Individual blood serum was isolated for ELISA.
50-100 μl of a mixture of BI400-015 and -201 (pre-incubated in Coating buffer—0.05M Na2CO3 pH9.6; denoted CB—in cold at 16 μg/ml for each peptide 1-3 days prior to coating) or just CB (background control) was used for coating wells in microtiter plates at 4° C. overnight. Plates were then washed 3× with washing buffer (PBS+1% v/v Triton-X100; denoted WB), followed by 2 h blocking at room temperature (RT) with 200 μl/well of blocking buffer (PBS+1% w/v BSA). […] Plates were finally quenched by adding 100 μl/well of Quench solution (0.1M TRIS+0.1M EDTA+0.5M NaOH+0.01% w/v NaN3; pH14), followed by ELISA reader (ASYS UVM 340) at 550 nm.

Row | Substance | inhibition of antibody binding to C5/gp41 (015/201) [1] | magnitude of response among LTNP patients compared to patients chronically infected with HIV ([2]; individual sera) | responses in blood donors ([2]; negative control sera) | binding of sera from immunized rabbits to C5/gp41 peptides [3] | cross competition of anti-C5/gp41 rabbit sera by LTNP-sera pools ([1]; LTNP-sera pools diluted 1:10, FIG. 4)
1 | 201: gp41 peptide (DRPEGIEEEGGERDR) [compound 201] | could be inhibited |  |  |  | 
2 | APTKAKRRVVQREKR (Artificial sequene) [SEQ ID NO: 47] |  | greater response | consistently low |  | 
3 | BI400-B: SEQ ID NO: 38 and SEQ ID NO: 39 linked via Cys and Lys residues; vaccine antigen (chain 1 GAKRRVVGGCGGAKRRVVQREKRAGEREKRA; chain 2 GKGGIEEEGGRDRDRGGEQDRDR; bridge I:10-II:2 (inferred)) | could be inhibited |  |  | bound to peptides corresponding to C5/gp41 (015/201) | competitively inhibited
4 | GGAIVNGSLADDDIVI [204d, peptide derived from C2] | could be inhibited |  |  |  | 
